Experimental data: patent publication US4546176A, “7-Carboxymethoxyphenylacetamido-3-cephem derivatives and antibacterial preparations containing the same” (Eisai Co., Ltd., priority 1982, dated 1985)
In brackets after ≈: the same amount, converted by molar mass.

Experiments:
Escher. coli NIHJ = experiment: Antibacterial activities (MIC), Escher. coli NIHJ; format: cell-based; details: Escherichia coli
Excerpt: (§1) (1) Antibacterial activities (MIC):

Pseud. aeruginosa EP-01 = experiment: Antibacterial activities (MIC), Pseud. aeruginosa EP-01; format: cell-based; details: Pseudomonas aeruginosa, EP01
Excerpt: as §1

Kleb. pneumoniae EK-6 = experiment: Antibacterial activities (MIC), Kleb. pneumoniae EK-6; format: cell-based; details: Klebsiella pneumoniae, EK6
Excerpt: as §1

Proteus morganii EP-14 = experiment: Antibacterial activities (MIC), Proteus morganii EP-14; format: cell-based; details: Morganella morganii, EP14
Excerpt: as §1

Proteus vulgaris E-18 = experiment: Antibacterial activities (MIC), Proteus vulgaris E-18 (lactamase producing); format: cell-based; details: E18; Proteus vulgaris E-18, lactamase producing bacteria
Excerpt: as §1
*Lactamase producing bacteria.

Staph. aureus 209-P = experiment: Antibacterial activities (MIC), Staph. aureus 209-P; format: cell-based; details: Staphylococcus aureus
Excerpt: as §1

Ser. marcescens ES-75 = experiment: Antibacterial activities (MIC), Ser. marcescens ES-75; format: cell-based; details: Serratia marcescens, ES75
Excerpt: as §1

Solubility in water = format: physicochemical; details: in distilled water at 25° C.
[1] = Urinary excretion rate in mice; format: in vivo, ICR male mice; details: mouse, sc, 20 mg/kg subcutaneous, urine up to 6 hours, bioassay
Description: ICR male mice (body weight: 20-30 g) were used. Each compound was dissolved in an M/15 phosphate buffer (pH 7.0) and administered in an amount of 20 mg/kg by the subcutaneous route. Urine was collected up to 6 hours after the administration. The concentration of the compound was determined by the bioassey technique (the agar-well method) using Pseudomonas aeruginosa as a test microorganism. On the basis of the thus-determined concentration, its excreted amount was obtained. The urinary excretion rate was then calculated from the excreted amount based on the amount administered.

[2] = Acute toxicity LD50 (mouse, oral); details: in vivo
Excerpt: The acute toxicity values [LD50 (mouse, oral)] of the following compounds were each 4 g/kg or greater;

| Structure (SMILES) | MIC (Escher. coli NIHJ) [µg/mL] | MIC (Pseud. aeruginosa EP-01) [µg/mL] | MIC (Kleb. pneumoniae EK-6) [µg/mL] | MIC (Proteus morganii EP-14) [µg/mL] | MIC (Proteus vulgaris E-18) [µg/mL] | MIC (Staph. aureus 209-P) [µg/mL] | MIC (Ser. marcescens ES-75) [µg/mL] | solubility (Solubility in water) [mg/mL] | dose excreted at 6 h [1] [%] | LD50 [2] [mg/kg] |
| --- | --- | --- | --- | --- | --- | --- | --- | --- | --- | --- |
| CO[C@@]1(NC(=O)[C@H](NC(=O)c2c(C)oc3cc(OC(C)=O)c(OC(C)=O)cc3c2=O)c2ccc(OCC(=O)O)cc2)C(=O)N2C(C(=O)O)=C(CSc3nnnn3CC(=O)O)CS[C@@H]21 [Example 21] | 0.4 (≈ 0.439 µM) | 0.2 (≈ 0.219 µM) | ≤ 0.05 | 3.13 (≈ 3.43 µM) | 0.4 (≈ 0.439 µM) | 100 (≈ 110 µM) | 0.1 (≈ 0.11 µM) |  |  |  |
| CO[C@@]1(NC(=O)[C@H](NC(=O)c2c(C)oc3c(OC(C)=O)c(OC(C)=O)ccc3c2=O)c2ccc(OCC(=O)O)cc2)C(=O)N2C(C(=O)O)=C(CSc3nnnn3CC(=O)O)CS[C@@H]21 [Example 24, 7β-[D-2-(4-Carboxymethoxyphenyl)-2-(7,8-diacetoxy-2-methyl-4-oxo-4H-1-benzopyran-3-carboxamido)-acetamido]-7α-methoxy-3-(1-carboxymethyl-4-tetrazolyl)thiomethyl-3-cephem-4-carboxylic acid] | 0.8 (≈ 0.877 µM) | 0.8 (≈ 0.877 µM) | ≤ 0.05 | 12.5 (≈ 13.7 µM) | 3.13 (≈ 3.43 µM) | 100 (≈ 110 µM) | 0.8 (≈ 0.877 µM) |  |  |  |
| CO[C@@]1(NC(=O)[C@H](NC(=O)c2c(C)oc3cc(O)c(O)cc3c2=O)c2ccc(OCC(=O)O)cc2)C(=O)N2C(C(=O)O)=C(CSc3nnnn3CC(=O)O)CS[C@@H]21 [Example 25] | 0.4 (≈ 0.483 µM) | 0.4 (≈ 0.483 µM) | ≤ 0.05 | 3.13 (≈ 3.78 µM) | 0.4 (≈ 0.483 µM) | 100 (≈ 121 µM) | 0.1 (≈ 0.121 µM) | ≥ 300 | 20 | ≥ 4000 |
| CO[C@@]1(NC(=O)[C@H](NC(=O)c2c(C)oc3c(O)c(O)ccc3c2=O)c2ccc(OCC(=O)O)cc2)C(=O)N2C(C(=O)O)=C(CSc3nnnn3CC(=O)O)CS[C@@H]21 [Example 28, Trisodium 7β-[D-2-(4-carboxymethoxyphenyl)-2-(7,8-dihydroxy-2-methyl-4-oxo-4H-1-benzopyran-3-carboxamido)-acetamido]-7α-methoxy-3-(1-carboxymethyl-5-tetrazolyl)-thiomethyl-3-cephem-4-carboxylate] | 0.8 | 0.8 | ≤ 0.05 | 6.25 | 3.13 | 100 | 0.8 |  | 24 |  |
| CO[C@@]1(NC(=O)[C@H](NC(=O)c2coc3cc(O)c(O)cc3c2=O)c2ccc(OCC(=O)O)cc2)C(=O)N2C(C(=O)O)=C(CSc3nnnn3CC(=O)O)CS[C@@H]21 [Example 30, Trisodium 7β-[D-2-(4-carboxymethoxyphenyl)-2-(6,7-dihydroxy-4-oxo-4H-1-benzopyran-3-carboxamido)-acetamido]-7α-methoxy-3-(1-carboxymethyl-5-tetrazolyl)-thiomethyl-3-cephem-4-carboxylate] | 0.8 | 0.4 | ≤ 0.05 | 6.25 | 0.8 | 100 | 0.2 |  |  | ≥ 4000 |
| CO[C@@]1(NC(=O)[C@H](NC(=O)c2coc3cc(O)c(O)cc3c2=O)c2ccc(OCC(=O)O)cc2)C(=O)N2C(C(=O)O)=C(COC(C)=O)CS[C@@H]21 [Example 31, 7β-[D-2-(4-Carboxymethoxyphenyl)-2-(6,7-dihydroxy-4-oxo-4H-1-benzopyran-3-carboxamido)acetamido]-7α-methoxy-3-acetoxymethyl-3-cephem-4-carboxylic acid] | 0.8 (≈ 1.12 µM) | 0.4 (≈ 0.561 µM) | ≤ 0.05 | 6.25 (≈ 8.76 µM) | 1.56 (≈ 2.19 µM) | 50 (≈ 70.1 µM) | 0.4 (≈ 0.561 µM) |  |  |  |
| CO[C@@]1(NC(=O)[C@H](NC(=O)c2c(C)oc3cc(O)c(O)cc3c2=O)c2ccc(OCC(=O)O)cc2)C(=O)N2C(C(=O)O)=C(COC(C)=O)CS[C@@H]21 [Example 33, Disodium 7β-[D-2-(4-carboxymethoxyphenyl)-2-(6,7-dihydroxy-2-methyl-4-oxo-4H-1-benzopyran-3-carboxamido)acetamido]-7α-methoxy-3-acetoxymethyl-3-cephem-4-carboxylate] | 0.8 | 0.2 | ≤ 0.05 | 12.5 | 1.56 | 50 | 0.8 |  |  |  |
| CO[C@@]1(NC(=O)[C@H](NC(=O)c2c(C)oc3cc(O)c(O)cc3c2=O)c2ccc(OCC(=O)O)cc2)C(=O)N2C(C(=O)[O-])=C(C[n+]3ccccc3)CS[C@@H]21 [Example 48, Sodium 7β-[D-2-(4-carboxymethoxyphenyl)-2-(6,7-dihydroxy-2-methyl-4-oxo-4H-1-benzopyran-3-carboxamido)acetamido]-7α-methoxy-3-pyridiniummethyl-3-cephem-4-carboxylate] | 0.2 | 0.2 | ≤ 0.05 | 6.25 | 1.56 | 100 | 0.1 | ≥ 300 | 45 | ≥ 4000 |
| CO[C@@]1(NC(=O)[C@H](NC(=O)c2c(C)oc3cc(O)c(O)cc3c2=O)c2ccc(OCC(=O)O)cc2)C(=O)N2C(C(=O)[O-])=C(C[n+]3ccc(C(N)=O)cc3)CS[C@@H]21 [Example 50, Sodium 7β-[D-2-(4-carboxymethoxyphenyl)-2-(6,7-dihydroxy-2-methyl-4-oxo-4H-1-benzopyran-3-carboxamido)acetamido]-7α-methoxy-3-(4-carbamoylpyridinium)methyl-3-cephem-4-carboxylate] | 1.56 | 0.4 | 0.1 | 12.5 | 3.13 | 100 | 0.8 | ≥ 300 |  | ≥ 4000 |
| CO[C@@]1(NC(=O)[C@H](NC(=O)c2coc3cc(O)c(O)cc3c2=O)c2ccc(OCC(=O)O)cc2)C(=O)N2C(C(=O)[O-])=C(C[n+]3ccc(C(N)=O)cc3)CS[C@@H]21 [Example 51, Sodium 7β-[D-2-(4-carboxymethoxyphenyl)-2-(6,7-dihydroxy-4-oxo-4H-1-benzopyran-3-carboxamido)-acetamido]-7α-methoxy-3-(4-carbamoylpyridinium)-methyl-3-cephem-4-carboxylate] | 1.56 | 0.4 | ≤ 0.05 | 25 | 3.13 | 50 | 0.8 | ≥ 300 | 16 |  |
| CCn1cc(C(=O)N[C@@H](C(=O)N[C@@H]2C(=O)N3C(C(=O)[O-])=C(C[n+]4ccc(C(N)=O)cc4)CS[C@H]23)c2ccc(OCC(=O)O)cc2)c(=O)c2cc(O)c(O)cc21 [Example 53, Sodium 7β-[D-2-(4-carboxymethoxyphenyl)-2-(6,7-dihydroxy-1-ethyl-1,4-dihydro-4-oxoquinoline-3-carboxamido)acetamido]-3-(4-carbamoylpyridinium)-methyl-3-cephem-4-carboxylate] | 0.4 | 0.2 | ≤ 0.05 | 6.25 |  | 50 | 0.8 | ≥ 300 | 13 | ≥ 4000 |
